According to patent US10238670B2, “9-aminomethyl minocycline compounds and methods of use thereof in urinary tract infection (UTI) treatment” (Paratek Pharmaceuticals, Inc., priority 2016, dated 2019):

Test system: Acinetobacter
Experiment: In vitro MIC, 2010 surveillance isolates
Format: cell-based
Details: N=952

CN(C)c1cc(CNCC(C)(C)C)c(O)c2c1C[C@H]1C[C@H]3[C@H](N(C)C)C(O)=C(C(N)=O)C(=O)[C@@]3(O)C(O)=C1C2=O [Compound 1, 9-[(2,2-dimethyl-propylamino)-methyl]-minocycline]
Cumulative % Inhibition at MIC (MIC 1 μg/ml): 44.1% | Cumulative % Inhibition at MIC (MIC 2 μg/ml): 73.1% | Cumulative % Inhibition at MIC (MIC 4 μg/ml): 93.5% | Cumulative % Inhibition at MIC (MIC 8 μg/ml): 98.5% | Cumulative % Inhibition at MIC (MIC 16 μg/ml): 99.5% | Cumulative % Inhibition at MIC (MIC ≤0.5 μg/ml, listed as head image P00018): 31.1% | Cumulative % Inhibition at MIC (MIC ≥32 μg/ml): 100%
